Values joined by “and” are separate entries in the source; they are usually repeats but may differ in a detail not shown here. Equal entries are not always repeated. Structures can show the parent of a compound that is named as a salt.
Biological target: T1, HO-1 (Rattus norvegicus, UniProt P06762)
T1 construct: Rat spleen microsomal fractions were chosen to isolate HO-1 in its most native form; from tissue; host or cells: rat spleen (male Sprague-Dawley), 100,000 g microsomal pellet
T1 sequence (P06762 1-289): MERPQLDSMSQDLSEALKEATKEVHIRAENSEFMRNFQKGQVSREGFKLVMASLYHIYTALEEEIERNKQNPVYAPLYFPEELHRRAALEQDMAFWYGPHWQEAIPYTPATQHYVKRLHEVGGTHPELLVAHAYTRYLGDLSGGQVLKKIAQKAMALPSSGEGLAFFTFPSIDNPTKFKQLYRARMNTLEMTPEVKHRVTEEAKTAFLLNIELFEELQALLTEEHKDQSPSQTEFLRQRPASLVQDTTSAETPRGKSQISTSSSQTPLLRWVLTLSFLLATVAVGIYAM
Assay: HO-1 enzymatic activity in the microsomal fraction of rat spleen (bilirubin formation)
Assay type: biochemical
Conditions: rat spleen microsomal fraction; mean ± SD of triplicate experiments
Procedure: The inhibitory potency of the novel compounds was evaluated reproducing in vitro the HO-1 catalytic cycle. Rat spleen microsomal fractions were chosen to isolate HO-1 in its most native form; indeed, it is well known that in basal conditions, HO-1 is highly expressed in spleen tissues. […] Among the three catabolites, bilirubin concentrations can easily be monitored spectrophotometrically; the lowest is the absorbance detected with the assay, and the highest is the potency of the putative inhibitor. Results obtained from the in vitro enzymatic assay are reported in Table 1, using Azalanstat as the reference compound.
Rat spleen microsomal fraction obtained by differential centrifugation, according to Ryter et al., was used as source of the HO-1 protein. As reported in the literature, HO-1 is abundant in the rat spleen. We chose this source because it represents the most native (i.e., closest to in vivo) form of HO-1. The experiments reported in the present paper complied with current Italian law and met the guidelines of the Institutional Animal Care and Use Committee of the Ministry of Health (Directorate-General for Animal Health and Veterinary Medicines, Italy) “Dosing of enzymatic activities in rat microsomes” (2018–2022), project code 02769.N.VLY. We used male albino rats of strain Sprague–Dawley (150 g body weight and age 45 d) to obtain spleen microsomal fraction. Rats had free access to water and were kept at room temperature with a natural photoperiod (12 h light–12 h dark cycle). Each rat was sacrificed, and their spleens were pooled and then homogenized in 50 mM Tris buffer, pH 7.4, containing 0.25 M sucrose, using a Potter–Elvehjem homogenizing system with a Teflon pestle. Rat spleen homogenate was centrifuged at 10,000× g for 20 min at 4 °C, and the supernatant was centrifuged at 100,000× g for 60 min at 4 °C. The 100,000 g pellet (microsomes) was resuspended in 100 mM potassium phosphate buffer, pH 7.8, containing MgCl2 2 mM. After measuring its protein concentration, the microsomal fraction was aliquoted and stored at −80 °C for up to 2 months.
Liver tissue was used to obtain biliverdin reductase. Liver tissue was homogenized on ice in 3 volumes of a solution 1.15% KCl w/v and Tris buffer 20 mM, pH 7.8. Rat liver homogenate was centrifuged at 10,000× g for 20 min at 4 °C, and the supernatant was centrifuged at 100,000× g for 1 h at 4 °C. The 100,000 g supernatant was aliquoted and stored at −80 °C after its protein concentration was measured.
Determination of HO-1 activity has been performed by measuring the bilirubin formation using the difference in absorbance at 464–530 nm as described by Ryter et al.. The incubation mixture contained the following in a final volume of 500 µL: 20 mM Tris–HCl, pH 7.4, (1 mg/mL) microsomal extract, 0.5–2 mg/mL biliverdin reductase, 1 mM NADPH, 2 mM glucose 6-phosphate (G6P), 1 U G6P dehydrogenase, 25 µM hemin, and 10 µL of DMSO (or the same volume of DMSO solution of test compounds to a final concentration of 100, 10, and 1 µM). Enzymatic reactions were carried out in the dark for 1 h at 37 °C in a circulating water bath. Then, 500 µL of chloroform was used to stop the reaction. The amount of bilirubin formed was measured in the chloroform phase, with a double-beam spectrophotometer as OD464–530 nm (extinction coefficient, 40 mM/cm for bilirubin). The enzymatic activity was defined as Units (one Unit is the amount of enzyme catalyzing the formation of 1 nmol of bilirubin/mg protein/h).

Question: With `COc1cc2cc(C(=O)NCCCn3ccnc3)n(C)c2cc1OC` [Compound 4c, N-(3-(1H-Imidazol-1-yl)propyl)-5,6-dimethoxy-1-methyl-1H-indole-2-carboxamide] as the compound, how does the IC50 read?
Answer: 55.5 ± 3.82 µM

Question: For `COc1cc2cc(C(=O)NCCCn3ccnc3)n(Cc3ccccc3)c2cc1OC` [Compound 8c, N-(3-(1H-Imidazol-1-yl)propyl)-1-benzyl-5,6-dimethoxy-1H-indole-2-carboxamide], which IC50 is on record?
Answer: 81 ± 4.65 µM

Question: Which IC50 does the source give for `Cc1ccc2c(c1)cc(C(=O)NCCCn1ccnc1)n2Cc1ccccc1` [Compound 8a, N-(3-(1H-Imidazol-1-yl)propyl)-1-benzyl-5-methyl-1H-indole-2-carboxamide] here?
Answer: 2060 ± 412 µM

Question: With `COc1ccc2c(c1)cc(C(=O)NCCCn1ccnc1)n2C` [Compound 4b, N-(3-(1H-Imidazol-1-yl)propyl)-5-methoxy-1-methyl-1H-indole-2-carboxamide] as the compound, how does the IC50 read?
Answer: > 100 µM and 113 µM

Question: Which “HO-1 IC50” value does the source give for `Cn1c(C(=O)NCCCn2ccnc2)cc2cc(OCc3ccccc3)ccc21` [Compound 4d, N-(3-(1H-Imidazol-1-yl)propyl)-5-(benzyloxy)-1-methyl-1H-indole-2-carboxamide] here?
Answer: low micromolar range

Question: And the IC50?
Answer: 1.03 ± 0.13 µM

Question: With `Cc1ccc2c(c1)cc(C(=O)NCCCn1ccnc1)n2C` [Compound 4a, N-(3-(1H-Imidazol-1-yl)propyl)-1,5-dimethyl-1H-indole-2-carboxamide] as the compound, how does the IC50 read?
Answer: 367 ± 34.5 µM

Question: For `COc1ccc2c(c1)cc(C(=O)NCCCn1ccnc1)n2Cc1ccccc1` [Compound 8b, N-(3-(1H-Imidazol-1-yl)propyl)-1-benzyl-5-methoxy-1H-indole-2-carboxamide], which IC50 is on record?
Answer: > 100 µM and 349 µM

Question: Which IC50 does the source give for `O=C(NCCCn1ccnc1)c1cc2cc(OCc3ccccc3)ccc2[nH]1` [Compound 1, N-(3-(1H-Imidazol-1-yl)propyl)-5-(benzyloxy)-1H-indole-2-carboxamide] here?
Answer: 89.6 ± 6.1 µM

Same assay, conditions: versus compound 1

Question: With `Cn1c(C(=O)NCCCn2ccnc2)cc2cc(OCc3ccccc3)ccc21` [Compound 4d, N-(3-(1H-Imidazol-1-yl)propyl)-5-(benzyloxy)-1-methyl-1H-indole-2-carboxamide] as the compound, how does the “fold more potent than parent compound 1 (HO-1 IC50)” value read?
Answer: 87 fold

System: HO-2
Assay: not given
Conditions: representative inhibitor, printed in picture of Figure 1; cited from earlier work

Question: For `FC(F)(F)c1ccc(SC[C@@H]2CO[C@@](CCc3ccc(Cl)cc3)(Cn3ccnc3)O2)nc1` [QC-80], which IC50 is on record?
Answer: 16 µM

System: HO-1
Assay: not given
Conditions: representative inhibitor, printed in picture of Figure 1; cited from earlier work

Question: With `FC(F)(F)c1ccc(SC[C@@H]2CO[C@@](CCc3ccc(Cl)cc3)(Cn3ccnc3)O2)nc1` [QC-80] as the compound, how does the IC50 read?
Answer: 2.1 µM

System: not given
Assay: not given
Conditions: not given

Question: Which melting point does the source give for `COc1ccc2c(c1)cc(C(=O)NCCCn1ccnc1)n2Cc1ccccc1` (as salt: hydrochloride) [Compound 8b, N-(3-(1H-Imidazol-1-yl)propyl)-1-benzyl-5-methoxy-1H-indole-2-carboxamide] here?
Answer: 151 to 152 °C

Question: For `COc1ccc2c(c1)cc(C(=O)NCCCn1ccnc1)n2C` (as salt: hydrochloride) [Compound 4b, N-(3-(1H-Imidazol-1-yl)propyl)-5-methoxy-1-methyl-1H-indole-2-carboxamide], which melting point is on record?
Answer: 121 to 122 °C

Question: Which melting point does the source give for `Cn1c(C(=O)NCCCn2ccnc2)cc2cc(OCc3ccccc3)ccc21` (as salt: hydrochloride) [Compound 4d, N-(3-(1H-Imidazol-1-yl)propyl)-5-(benzyloxy)-1-methyl-1H-indole-2-carboxamide] here?
Answer: 174 to 175 °C

Question: With `Cc1ccc2c(c1)cc(C(=O)NCCCn1ccnc1)n2Cc1ccccc1` (as salt: hydrochloride) [Compound 8a, N-(3-(1H-Imidazol-1-yl)propyl)-1-benzyl-5-methyl-1H-indole-2-carboxamide] as the compound, how does the melting point read?
Answer: 178 to 179 °C

Question: With `Cc1ccc2c(c1)cc(C(=O)NCCCn1ccnc1)n2C` (as salt: hydrochloride) [Compound 4a, N-(3-(1H-Imidazol-1-yl)propyl)-1,5-dimethyl-1H-indole-2-carboxamide] as the compound, how does the melting point read?
Answer: 102 to 103 °C

Question: Which melting point does the source give for `COc1cc2cc(C(=O)NCCCn3ccnc3)n(Cc3ccccc3)c2cc1OC` (as salt: hydrochloride) [Compound 8c, N-(3-(1H-Imidazol-1-yl)propyl)-1-benzyl-5,6-dimethoxy-1H-indole-2-carboxamide] here?
Answer: 110 to 111 °C

Question: With `O=C(NCCCn1ccnc1)c1cc2cc(OCc3ccccc3)ccc2[nH]1` [Compound 1, N-(3-(1H-Imidazol-1-yl)propyl)-5-(benzyloxy)-1H-indole-2-carboxamide] as the compound, how does the melting point read?
Answer: 204 to 206 °C

Question: With `COc1cc2cc(C(=O)NCCCn3ccnc3)n(C)c2cc1OC` (as salt: hydrochloride) [Compound 4c, N-(3-(1H-Imidazol-1-yl)propyl)-5,6-dimethoxy-1-methyl-1H-indole-2-carboxamide] as the compound, how does the melting point read?
Answer: 146 to 147 °C
